Reference: PMC11921146, “Heterologous production of corosolic acid, a phyto-insulin, in agroinfiltrated Nicotiana benthamiana leaves” (Plant Biotechnology, 2024)

Experiments:
Experiment in all cases: transient co-expression in N. benthamiana leaves, GC-MS of leaf extracts
Format in all cases: cell-based
Conditions in all cases: alpha-amyrin formed in situ by BfOSC3; co-expressed AtHMGR1cd-S577A and LjCPR2; C-28 oxidation
[1] = target: T1, MtCYP716A12 (Medicago truncatula, UniProt Q2MJ20, D122Q/Q358P)
T1 construct: gene CYP716A12; full-length; transient expression in N. benthamiana leaves (pBYR2HS)
T1 sequence (Q2MJ20 whole entry D122Q/Q358P, the tested form may be a part): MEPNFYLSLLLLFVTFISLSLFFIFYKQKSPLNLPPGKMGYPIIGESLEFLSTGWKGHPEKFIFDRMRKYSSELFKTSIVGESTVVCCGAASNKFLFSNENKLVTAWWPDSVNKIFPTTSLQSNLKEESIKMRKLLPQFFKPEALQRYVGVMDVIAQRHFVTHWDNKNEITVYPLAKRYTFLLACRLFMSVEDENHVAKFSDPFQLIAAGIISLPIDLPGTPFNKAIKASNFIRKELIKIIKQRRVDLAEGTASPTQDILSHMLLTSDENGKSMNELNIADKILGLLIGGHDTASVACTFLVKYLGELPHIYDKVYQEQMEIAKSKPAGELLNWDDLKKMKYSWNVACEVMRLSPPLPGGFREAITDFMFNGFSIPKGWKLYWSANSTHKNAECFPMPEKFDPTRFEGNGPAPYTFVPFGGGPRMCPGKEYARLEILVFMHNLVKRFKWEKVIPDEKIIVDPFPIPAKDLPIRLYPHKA

[2] = target: T2, OeCYP716A48 (Olea europaea, UniProt A0A090AQE0)
T2 construct: gene CYP716A48; full-length; transient expression in N. benthamiana leaves (pBYR2HS)
T2 sequence (A0A090AQE0 entry or part of it): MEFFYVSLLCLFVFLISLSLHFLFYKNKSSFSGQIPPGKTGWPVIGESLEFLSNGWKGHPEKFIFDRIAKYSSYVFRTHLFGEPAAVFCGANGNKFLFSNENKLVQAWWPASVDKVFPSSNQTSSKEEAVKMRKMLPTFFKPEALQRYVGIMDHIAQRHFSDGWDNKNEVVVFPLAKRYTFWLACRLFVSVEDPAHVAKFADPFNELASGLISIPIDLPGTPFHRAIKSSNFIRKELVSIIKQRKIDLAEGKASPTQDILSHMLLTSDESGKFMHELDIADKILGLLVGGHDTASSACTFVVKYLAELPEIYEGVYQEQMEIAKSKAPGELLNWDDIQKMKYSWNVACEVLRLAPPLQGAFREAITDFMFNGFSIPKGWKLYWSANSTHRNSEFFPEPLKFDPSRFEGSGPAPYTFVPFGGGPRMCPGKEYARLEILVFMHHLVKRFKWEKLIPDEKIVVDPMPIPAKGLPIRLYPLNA

[3] = target: T3, MtCYP716A12 (Medicago truncatula, UniProt Q2MJ20)
T3 construct: gene CYP716A12; full-length; transient expression in N. benthamiana leaves (pBYR2HS)
T3 sequence (Q2MJ20 whole entry, the tested form may be a part): as the sequence (Q2MJ20 whole entry D122Q/Q358P, the tested form may be a part) above, with Q122D, P358Q counted along it

[4] = target: T4, MtCYP716A12 (Medicago truncatula, UniProt Q2MJ20, D122Q)
T4 construct: gene CYP716A12; full-length; transient expression in N. benthamiana leaves (pBYR2HS)
T4 sequence (Q2MJ20 whole entry D122Q, the tested form may be a part): as the sequence (Q2MJ20 whole entry D122Q/Q358P, the tested form may be a part) above, with P358Q counted along it

Compound: C[C@H]1[C@H](C)CC[C@]2(C)CC[C@]3(C)C(=CC[C@@H]4[C@@]5(C)CC[C@H](O)C(C)(C)[C@@H]5CC[C@]43C)[C@H]12 [compound 1, α-amyrin]
- transient co-expression in N. benthamiana leaves, GC-MS of leaf extracts [1]: each of the candidate CYP716As were mixed and infiltrated into N. benthamiana leaves
- transient co-expression in N. benthamiana leaves, GC-MS of leaf extracts [2]: each of the candidate CYP716As were mixed and infiltrated into N. benthamiana leaves
- transient co-expression in N. benthamiana leaves, GC-MS of leaf extracts [3]: detected in the leaves expressing wild-type MtCYP716A12
- transient co-expression in N. benthamiana leaves, GC-MS of leaf extracts [4]: each of the candidate CYP716As were mixed and infiltrated into N. benthamiana leaves
